Source: publication PMC10408569, “Recruitment of hexahydroquinoline as anticancer scaffold targeting inhibition of wild and mutants EGFR (EGFR^WT, EGFR^T790M, and EGFR^L858R)” (Journal of Enzyme Inhibition and Medicinal Chemistry, 2023)

Assays:
Assay in all cases: NCI-60 anticancer screening (SRB)
Format in all cases: cell-based
HCT-116 = conditions: Homo sapiens; HCT-116, colon cancer; one dose 10 μM; read-out: Growth Inhibition Percentage (GI %)
SK-MEL-5 = conditions: Homo sapiens; SK-MEL-5, melanoma; one dose 10 μM; read-out: Growth Inhibition Percentage (GI %)
SF-268 = conditions: Homo sapiens; SF-268, CNS cancer; one dose 10 μM; read-out: Growth Inhibition Percentage (GI %)
OVCAR-4 = conditions: Homo sapiens; OVCAR-4, ovarian cancer; one dose 10 μM; read-out: Growth Inhibition Percentage (GI %)
T-47D = conditions: Homo sapiens, T47D, breast cancer, one dose 10 μM, read-out: Growth Inhibition Percentage (GI %)
SR = conditions: Homo sapiens, leukemia, one dose 10 μM, read-out: Growth Inhibition Percentage (GI %)
ACHN = conditions: Homo sapiens, renal cancer, one dose 10 μM, read-out: Growth Inhibition Percentage (GI %)
HS 578T = conditions: Homo sapiens; HS 578T, breast cancer; one dose 10 μM; read-out: Growth Inhibition Percentage (GI %)
SW-620 = conditions: Homo sapiens; SW-620, colon cancer; one dose 10 μM; read-out: Growth Inhibition Percentage (GI %)
SN 12C = conditions: Homo sapiens, SN12C; SN 12C, renal cancer; one dose 10 μM; read-out: Growth Inhibition Percentage (GI %)
NCI-H460 = conditions: Homo sapiens; NCI-H460, NSC lung cancer; one dose 10 μM; read-out: Growth Inhibition Percentage (GI %)
SK-OV-3 = conditions: Homo sapiens; SK-OV-3, ovarian cancer; one dose 10 μM; read-out: Growth Inhibition Percentage (GI %)
M14 = conditions: Homo sapiens; M14, melanoma; one dose 10 μM; read-out: Growth Inhibition Percentage (GI %)
RPMI-8226 = conditions: Homo sapiens; RPMI-8226, leukemia; one dose 10 μM; read-out: Growth Inhibition Percentage (GI %)
SF-295 = conditions: Homo sapiens; SF-295, CNS cancer; one dose 10 μM; read-out: Growth Inhibition Percentage (GI %)
SK-MEL-28 = conditions: Homo sapiens; SK-MEL-28, melanoma; one dose 10 μM; read-out: Growth Inhibition Percentage (GI %)
A498 = conditions: Homo sapiens; A498, renal cancer; one dose 10 μM; read-out: Growth Inhibition Percentage (GI %)
HOP-92 = conditions: Homo sapiens; HOP-92, NSC lung cancer; one dose 10 μM; read-out: Growth Inhibition Percentage (GI %)
LOX IMVI = conditions: Homo sapiens, melanoma, one dose 10 μM, read-out: Growth Inhibition Percentage (GI %)
PC-3 = conditions: Homo sapiens; PC-3, prostate cancer; one dose 10 μM; read-out: Growth Inhibition Percentage (GI %)
SF-539 = conditions: Homo sapiens; SF-539, CNS cancer; one dose 10 μM; read-out: Growth Inhibition Percentage (GI %)
K-562 = conditions: Homo sapiens, K562; K-562, leukemia; one dose 10 μM; read-out: Growth Inhibition Percentage (GI %)
UACC-62 = conditions: Homo sapiens; UACC-62, melanoma; one dose 10 μM; read-out: Growth Inhibition Percentage (GI %)
RXF 393 = conditions: Homo sapiens; RXF 393, renal cancer; one dose 10 μM; read-out: Growth Inhibition Percentage (GI %)
HT29 = conditions: Homo sapiens, HT-29; HT29, colon cancer; one dose 10 μM; read-out: Growth Inhibition Percentage (GI %)
MCF7 = conditions: Homo sapiens; MCF7, breast cancer; one dose 10 μM; read-out: Growth Inhibition Percentage (GI %)
TK-10 = conditions: Homo sapiens; TK-10, renal cancer; one dose 10 μM; read-out: Growth Inhibition Percentage (GI %)
CCRF-CEM = conditions: Homo sapiens, leukemia, one dose 10 μM, read-out: Growth Inhibition Percentage (GI %)

Row | Structure (SMILES) | inhibition at 10 µM (HCT-116) | inhibition at 10 µM (SK-MEL-5) | inhibition at 10 µM (SF-268) | inhibition at 10 µM (OVCAR-4) | inhibition at 10 µM (T-47D) | inhibition at 10 µM (SR) | inhibition at 10 µM (ACHN) | inhibition at 10 µM (HS 578T) | inhibition at 10 µM (SW-620) | inhibition at 10 µM (SN 12C) | inhibition at 10 µM (NCI-H460) | inhibition at 10 µM (SK-OV-3) | inhibition at 10 µM (M14) | inhibition at 10 µM (RPMI-8226) | inhibition at 10 µM (SF-295) | inhibition at 10 µM (SK-MEL-28) | inhibition at 10 µM (A498) | inhibition at 10 µM (HOP-92) | inhibition at 10 µM (LOX IMVI) | inhibition at 10 µM (PC-3) | other results
1 | CCOC(=O)C1=C(N)N(c2ccccc2)C2=C(C(=O)CC(C)(C)C2)C1c1ccccn1 (racemic) [12a, (±)-Ethyl 2-amino-7,7-dimethyl-5-oxo-1-phenyl-4-(pyridin-2-yl)-1,4,5,6,7,8-hexahydroquinoline-3-carboxylate] | < 10% | < 10% | < 10% | < 10% | < 10% | 16% | < 10% | < 10% | < 10% | < 10% | < 10% | < 10% | < 10% | < 10% | < 10% | < 10% | < 10% | < 10% | < 10% | < 10% | inhibition at 10 µM (SF-539): < 10%; inhibition at 10 µM (K-562): < 10%; inhibition at 10 µM (UACC-62): < 10%; inhibition at 10 µM (RXF 393): < 10%; inhibition at 10 µM (HT29): < 10%; inhibition at 10 µM (MCF7): < 10%; inhibition at 10 µM (TK-10): < 10%; inhibition at 10 µM (CCRF-CEM): < 10%
2 | CCOC(=O)C1=C(N)N(c2ccc(C)cc2)C2=C(C(=O)CC(C)(C)C2)C1c1ccccn1 (racemic) [12b, (±)-Ethyl 2-amino-7,7-dimethyl-1–(4-methylphenyl)-5-oxo-1-phenyl-4-(pyrdin-2-yl)-1,4,5,6,7,8-hexahydroquinoline-3-carboxylate] | < 10% | 13% | 14% | < 10% | < 10% | < 10% | < 10% | < 10% | < 10% | < 10% | < 10% | < 10% | < 10% | < 10% | < 10% | < 10% | < 10% | < 10% | < 10% | < 10% | inhibition at 10 µM (SF-539): < 10%; inhibition at 10 µM (K-562): < 10%; inhibition at 10 µM (UACC-62): 26%; inhibition at 10 µM (RXF 393): < 10%; inhibition at 10 µM (HT29): < 10%; inhibition at 10 µM (MCF7): 12%; inhibition at 10 µM (TK-10): < 10%; inhibition at 10 µM (CCRF-CEM): < 10%
3 | CCOC(=O)C1=C(N)N(c2ccc(Cl)cc2)C2=C(C(=O)CC(C)(C)C2)C1c1ccccn1 (racemic) [12c, (±)-Ethyl 2-amino-1–(4-chlorophenyl)-7,7-dimethyl-5-oxo-4-(pyridine-2-yl)-1,4,5,6,7,8-hexahydroquinoline-3-carboxylate] | 13% | 13% | < 10% | < 10% | < 10% | < 10% | < 10% | < 10% | < 10% | < 10% | < 10% | < 10% | < 10% | < 10% | < 10% | < 10% | < 10% | < 10% | < 10% | 19% | inhibition at 10 µM (SF-539): < 10%; inhibition at 10 µM (K-562): < 10%; inhibition at 10 µM (UACC-62): 25%; inhibition at 10 µM (RXF 393): < 10%; inhibition at 10 µM (HT29): 22%; inhibition at 10 µM (MCF7): 11%; inhibition at 10 µM (TK-10): < 10%; inhibition at 10 µM (CCRF-CEM): < 10%
4 | CCOC(=O)C1=C(N)N(c2ccccc2)C2=C(C(=O)CC(C)(C)C2)C1c1cccnc1 (racemic) [12d] | < 10% | < 10% | < 10% | < 10% | < 10% | < 10% | < 10% | < 10% | < 10% | < 10% | < 10% | < 10% | < 10% | < 10% | < 10% | < 10% | < 10% | < 10% | < 10% | < 10% | inhibition at 10 µM (SF-539): < 10%; inhibition at 10 µM (K-562): < 10%; inhibition at 10 µM (UACC-62): 12%; inhibition at 10 µM (RXF 393): < 10%; inhibition at 10 µM (HT29): < 10%; inhibition at 10 µM (MCF7): < 10%; inhibition at 10 µM (TK-10): < 10%; inhibition at 10 µM (CCRF-CEM): < 10%
5 | CCOC(=O)C1=C(N)N(c2ccc(C)cc2)C2=C(C(=O)CC(C)(C)C2)C1c1cccnc1 (racemic) [12e, (±)-Ethyl 2-amino-7,7-dimethyl-1–(4-methylphenyl)-5-oxo-1-phenyl-4-(pyrdin-3-yl)-1,4,5,6,7,8-hexahydroquinoline-3-carboxylate] | < 10% | < 10% | < 10% | < 10% | < 10% | < 10% | < 10% | < 10% | < 10% | < 10% | < 10% | < 10% | < 10% | 11% | < 10% | < 10% | < 10% | < 10% | < 10% | 12% | inhibition at 10 µM (SF-539): < 10%; inhibition at 10 µM (K-562): < 10%; inhibition at 10 µM (UACC-62): 14%; inhibition at 10 µM (RXF 393): < 10%; inhibition at 10 µM (HT29): < 10%; inhibition at 10 µM (MCF7): < 10%; inhibition at 10 µM (TK-10): < 10%; inhibition at 10 µM (CCRF-CEM): < 10%
6 | CCOC(=O)C1=C(N)N(c2ccc(Cl)cc2)C2=C(C(=O)CC(C)(C)C2)C1c1cccnc1 (racemic) [12f, (±)-Ethyl 2-amino-1–(4-chlorophenyl)-7,7-dimethyl-5-oxo-4-(pyridin-3-yl)-1,4,5,6,7,8-hexahydroquinoline-3-carboxylate] | < 10% | < 10% | < 10% | 13% | 25% | < 10% | < 10% | 16% | < 10% | < 10% | < 10% | < 10% | < 10% | 12% | < 10% | < 10% | < 10% | < 10% | 12% | < 10% | inhibition at 10 µM (SF-539): 12%; inhibition at 10 µM (K-562): < 10%; inhibition at 10 µM (UACC-62): < 10%; inhibition at 10 µM (RXF 393): < 10%; inhibition at 10 µM (HT29): < 10%; inhibition at 10 µM (MCF7): < 10%; inhibition at 10 µM (TK-10): < 10%; inhibition at 10 µM (CCRF-CEM): < 10%
